Consider 16 compounds from patent US11618746B2, “Inhibitors of APOL1 and methods of using same” (Vertex Pharmaceuticals Incorporated, priority 2018, dated 2023).

pIC50: −log10 of the molar value.

The target of this assay is T1, APOL1 G1 Protein (Homo sapiens, UniProt O14791, I384M/S342G).
T1 sequence (O14791 28-398 S342G/I384M): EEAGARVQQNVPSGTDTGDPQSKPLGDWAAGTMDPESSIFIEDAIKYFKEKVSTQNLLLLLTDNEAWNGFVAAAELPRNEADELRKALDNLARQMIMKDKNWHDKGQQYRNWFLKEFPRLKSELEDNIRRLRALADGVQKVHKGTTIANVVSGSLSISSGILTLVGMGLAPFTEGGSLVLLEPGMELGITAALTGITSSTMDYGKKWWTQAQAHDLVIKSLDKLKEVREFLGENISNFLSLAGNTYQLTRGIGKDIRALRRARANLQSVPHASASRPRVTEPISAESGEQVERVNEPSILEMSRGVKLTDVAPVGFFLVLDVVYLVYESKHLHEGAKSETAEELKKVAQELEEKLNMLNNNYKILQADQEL
Description: Trypanosoma brucei brucei lysis assay using APOL1 recombinant protein (AlamarBlue viability readout). Type of assay: cell-based. To be noted: Trypanosoma brucei brucei (Lister 427 VSG 221 bloodstream form) lysis by 0.05 μg/mL recombinant APOL1 G1, 16 hrs. From the text: Trypanosoma brucei brucei is a blood stream parasite to which human, gorillas and baboon are immune due to the presence of the APOL1 protein in their HDL particles. The protein is uptaken by the parasite via the TbHpHb receptor located in its flagellar pocket and is bonded by the Hpr protein contained in the HDL particles which triggers the receptor endocytosis by the parasite.
Following endocytosis, the formed vesicle containing the HDL particle matures from early to late endosome, and subsequently to lysosome. The concomitant pH change in the lumen of the vesicle triggers the insertion of the APOL1 protein into the membrane of the late endosome/lysosome and hereby triggers lysosomal membrane premeabilisation and as a further downstream event, trypanosome lysis. Trypanosoma brucei brucei is sensitive to lysis by all three APOL1 variants (G0, G1, and G2).
The Trypanosoma brucei brucei lysis assay is a lysis assay of the parasite using recombinant APOL1 protein variant followed by a fluorescent detection method of viability by the addition of AlamarBlue reagent to the assay well, a general metabolic redox indicator (AlamarBlue assay).
Briefly, the AlamarBlue active compound, the resazurin, a blue, water soluble, non-toxic and cell permeable molecule, which can be followed by absorbance, is reduced by various metabolic pathways into resorufin, a red compound which can be followed by either absorbance or fluorescence. The assay allows the calculation of the percent viability (percent of living Trypanosomes remaining in each well) at the end of a lysis relative to the untreated condition by interpolation of fluorescent values (FLU) on a standard curve with a known amount of seeded trypanosome/well.
Trypanosoma brucei brucei (ATCC, Cat. No. PRA-382) • Lister 427 VSG 221 bloodstream form.
Thaw/Expansion Media (ATCC Medium 2834 Modified HMI-9 Medium)
Equipment • E1-Clip Tip pipette 12 channel adjustable 2-125 μL, Cat. No. 4672070BT • ThermoFisher MultiDrop 384, Cat. No. 5840300 • Multidrop • Agilent Bravo, Cat. No. G5409A • Bravo • SpectraMax M5
Trypanosoma brucei brucei Culture
Step 2, Day 4 • Centrifuge at 800×g for 5 minutes at room temperature. • Resuspend in 1 mL media. • Make a 1:25 fold dilution (10 μL/240 μL media). • Count on a hemocytometer (after adding parasites). • Let sit for 1-2 minutes for the parasites to settle. • Count should be approximately 100 viable motile parasites/16 grid or approximately 25×10^6 parasites/flask. • Passage the parasites by adding 1×10^6 parasites/T75 flask in 20 mL media. • Passage the parasites by adding 2.33×10^6 parasites/T175 flask in 46.6 mL media. • For every T75 flask should make enough for approximately 1.5×384 well assay plates. • For every T175 flask should make enough for approximately 3.8×384 well assay plates.
Step 3. Day 6 • Centrifuge at 800×g for 5 minutes. • Resuspend in 3 mL assay media (No phenol red, no FBS) per 75 starting flask. • Resuspend in 7 mL assay media (No phenol red, no FBS) per 175 flask • Make a 1:25 fold dilution. • Count by hemocytometer. • Every T75 flask set up should have approximately 75×10^6 parasites/flask (verify doubling time=8.7 hrs 1 hr). • Every T175 flask set up should have approximately 175×10^6 parasites/flask (verify doubling time=8.7 hrs±1 hr). • Require 46×10^6 parasites per 384 well plate (at 120,000 parasites per well).
Step 2, Day 2 • Centrifuge at 800×g for 5 minutes at room temperature. • Resuspend in 1 mL media. • Make a 1:25 fold dilution (10 L/240 μL media). • Let sit for 1-2 minutes for the parasites to settle. • Count should be approximately 100 viable motile parasites/16 grid or approximately 8×10^6 parasites per flask. • Passage the parasites by adding 1.25×10^6 parasites per T75 flask in 20 mL media. • For every T75 flask set up should have approximately 1.5×384 well assay plates. • For every T175 flask setup should have approximately 3.8×384 well assay plates. […]
Broadly, the pIC50 is the negative decadic logarithm of the IC50, by convention in mol/L. As for `O=C(CCc1c(-c2ccccc2)[nH]c2cc(F)cc(F)c12)N[C@@H]1C(=O)NC[C@H]1O` [Compound 85], the negative logarithm of the IC50 (pIC50) was > 6.60.
Take `O=C(CCc1c(-c2ccccc2)[nH]c2ccccc12)N[C@@H]1C(=O)NC[C@H]1O` [Compound 86]: the negative logarithm of the IC50 (pIC50) is > 6.60.
With `O=C(CCc1c(-c2ccc(F)cc2)[nH]c2ccccc12)N[C@@H]1C(=O)NC[C@H]1O` [Compound 87, 3-[2-(4-fluorophenyl)-1H-indol-3-yl]-N-[(3S,4R)-4-hydroxy-2-oxo-pyrrolidin-3-yl]propanamide], the pIC50 is > 6.60.
With `O=C1NC[C@@H](O)[C@@H]1NC(=O)C(F)(F)Cc1c(-c2ccc(F)cc2)[nH]c2c(F)cc(F)cc12` [Compound 95, 3-[5,7-difluoro-2-(4-fluorophenyl)-1H-indol-3-yl]-2,2-difluoro-N-[(3S,4R)-4-hydroxy-2-oxo-pyrrolidin-3-yl]propanamide] the figure was > 6.60; with `Cc1c(F)c(F)cc2c(CCC(=O)N[C@@H]3C(=O)NC[C@H]3O)c(-c3ccc(F)cc3)[nH]c12` [Compound 98, 3-[5,6-difluoro-2-(4-fluorophenyl)-7-methyl-1H-indol-3-yl]-N-[(3S,4R)-4-hydroxy-2-oxo-pyrrolidin-3-yl]propanamide], > 6.60.
As for `Cc1c(F)c(F)cc2c(CCC(=O)N[C@@H]3C(=O)NC[C@H]3O)c(-c3ccccc3)[nH]c12` [Compound 99, 3-(5,6-difluoro-7-methyl-2-phenyl-1H-indol-3-yl)-N-[(3S,4R)-4-hydroxy-2-oxo-pyrrolidin-3-yl]propanamide], the figure is > 6.60.
As to `O=C(CCc1c(-c2ccc(F)cc2)[nH]c2c(F)cc(C(F)(F)F)cc12)N[C@@H]1C(=O)NC[C@H]1O` [Compound 101, 3-[7-fluoro-2-(4-fluorophenyl)-5-(trifluoromethyl)-1H-indol-3-yl]-N-[(3S,4R)-4-hydroxy-2-oxo-pyrrolidin-3-yl]propanamide], the negative logarithm of the IC50 (pIC50) was > 6.60.
With `O=C(CCc1c(-c2ccc(OC(F)F)cc2)[nH]c2c(F)cc(F)cc12)N[C@@H]1C(=O)NC[C@H]1O` [Compound 102] the figure was > 6.60.
Turning to `O=C(CCc1c(-c2cccc(F)c2)[nH]c2c(F)cc(F)cc12)N[C@@H]1C(=O)NC[C@H]1O` [Compound 103], the pIC50 was > 6.60.
With `O=C(CCc1c(-c2cc(F)cc(F)c2)[nH]c2c(F)cc(F)cc12)N[C@@H]1C(=O)NC[C@H]1O` [Compound 104], the pIC50 was > 6.60.
On to `O=C(CCc1c(-c2ccc(F)c(F)c2)[nH]c2c(F)cc(F)cc12)N[C@@H]1C(=O)NC[C@H]1O` [Compound 105], for which the pIC50 was > 6.60.
As for `O=C(CCc1c(-c2ccc(F)cc2)[nH]c2c(OC(F)F)cc(F)cc12)N[C@@H]1C(=O)NC[C@H]1O` [Compound 107], the pIC50 was 6.00 to 6.60.
In the case of `O=C(CCc1c(-c2ccc(F)cc2)[nH]c2ccc(C(F)(F)F)cc12)N[C@@H]1C(=O)NC[C@H]1O` [Compound 108, 3-[2-(4-fluorophenyl)-5-(trifluoromethyl)-1H-indol-3-yl]-N-[(3S,4R)-4-hydroxy-2-oxo-pyrrolidin-3-yl]propanamide], the pIC50 is > 6.60.
Regarding `O=C(CCc1c(-c2ccccc2)[nH]c2cc(F)ccc12)N[C@@H]1C(=O)NC[C@H]1O` [Compound 109, 3-(6-fluoro-2-phenyl-1H-indol-3-yl)-N-[(3S,4R)-4-hydroxy-2-oxo-pyrrolidin-3-yl]propanamide], the negative logarithm of the IC50 (pIC50) was > 6.60.
With `O=C(CCc1c(-c2ccccc2)[nH]c2c(C(F)(F)F)cccc12)N[C@@H]1C(=O)NC[C@H]1O` [Compound 112, N-[(3S,4R)-4-hydroxy-2-oxo-pyrrolidin-3-yl]-3-[2-phenyl-7-(trifluoromethyl)-1H-indol-3-yl]propanamide] the figure was < 6.00.
As for `O=C(CCc1c(-c2ccccc2)[nH]c2cccc(F)c12)N[C@@H]1C(=O)NC[C@H]1O` [Compound 114, 3-(4-fluoro-2-phenyl-1H-indol-3-yl)-N-[(3S,4R)-4-hydroxy-2-oxo-pyrrolidin-3-yl]propanamide], the figure is 6.00 to 6.60.
